Experimental data: BindingDB's records for doi:10.1074/jbc.M809430200 (The Scripps Research Institute, 2009)

Key:
[1] = molecular target: Mitogen-activated protein kinase 14 (p38α) (Homo sapiens) (UniProt Q16539); test: Homogeneous time-resolved fluorescence assay is an enzyme inhibition studies that were performed in 384-well polystyrene homogeneous time-resolved fluorescence plates (grainier).; conditions: pH 7
[2] = molecular target: Mitogen-activated protein kinase 8 (Homo sapiens, UniProt P45983); test: Fluorescence Assay; conditions: pH 7; 22 °C
Protocol: (§1) Homogeneous time-resolved fluorescence assay is an enzyme inhibition studies that were performed in 384-well polystyrene homogeneous time-resolved fluorescence plates (grainier).

[3] = molecular target: Mitogen-activated protein kinase 10 (Homo sapiens, UniProt P53779); test: Fluorescence Assay; conditions: pH 7; 22 °C
Protocol: as §1

Sequence of Mitogen-activated protein kinase 8 (P45983 whole entry): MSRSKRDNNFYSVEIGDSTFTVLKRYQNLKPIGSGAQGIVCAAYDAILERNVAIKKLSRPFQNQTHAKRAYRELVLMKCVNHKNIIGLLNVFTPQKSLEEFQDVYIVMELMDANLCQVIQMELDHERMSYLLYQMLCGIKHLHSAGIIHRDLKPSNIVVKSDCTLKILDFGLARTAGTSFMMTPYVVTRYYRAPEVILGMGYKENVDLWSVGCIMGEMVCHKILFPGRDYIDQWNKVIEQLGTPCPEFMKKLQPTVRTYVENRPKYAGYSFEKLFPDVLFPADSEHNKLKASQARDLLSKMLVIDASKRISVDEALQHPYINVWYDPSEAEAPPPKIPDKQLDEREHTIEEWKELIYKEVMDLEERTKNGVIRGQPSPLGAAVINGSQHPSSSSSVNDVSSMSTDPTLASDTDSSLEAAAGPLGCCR
Sequence of Mitogen-activated protein kinase 10 (P53779 whole entry): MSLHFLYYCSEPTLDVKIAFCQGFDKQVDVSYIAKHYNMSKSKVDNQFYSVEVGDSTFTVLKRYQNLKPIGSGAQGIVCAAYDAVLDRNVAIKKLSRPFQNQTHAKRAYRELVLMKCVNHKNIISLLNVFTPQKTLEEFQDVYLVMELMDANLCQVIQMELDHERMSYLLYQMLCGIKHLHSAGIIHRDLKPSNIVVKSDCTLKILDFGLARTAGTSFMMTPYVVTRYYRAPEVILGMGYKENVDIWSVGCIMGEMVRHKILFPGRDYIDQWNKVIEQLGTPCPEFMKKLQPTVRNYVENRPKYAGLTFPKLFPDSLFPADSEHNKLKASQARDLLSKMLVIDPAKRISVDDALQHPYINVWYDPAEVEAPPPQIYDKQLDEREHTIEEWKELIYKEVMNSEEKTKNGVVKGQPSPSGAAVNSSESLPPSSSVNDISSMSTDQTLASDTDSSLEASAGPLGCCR

SMILES | IC50 [1] [nM] | IC50 [2] [nM] | IC50 [3] [nM]
COc1cc(NC(=O)c2cccc(-n3cc(NC(=O)Nc4ccccc4)cn3)c2)cc(OC)c1OC [Aminopyrazole inhibitor, 3451] | 3700 | 400 | 25
O=C(Nc1cnn(-c2cccc(C(=O)NCCCN3CCOCC3)c2)c1)Nc1ccccc1Cl [Aminopyrazole inhibitor, 4276] | > 20000 |  | 350
Cc1cccc(NC(=O)Nc2cnn(-c3cccc(C(=O)NCCN4CCOCC4)c3)c2)c1 [Aminopyrazole inhibitor, 4018] | > 20000 | > 20000 | 2100
Cc1cncc(NC(=O)c2cccc(-n3cc(NC(=O)Nc4ccccc4Cl)cn3)c2)c1 [Aminopyrazole inhibitor, 4326] | > 20000 | 1400 | 55
COc1cc(NC(=O)c2cccc(-n3cc(NC(=O)Nc4ccc(Cl)cc4)cn3)c2)cc(OC)c1OC [Aminopyrazole inhibitor, 3583] |  |  | 480
Cc1cncc(NC(=O)c2cc(N3CCOCC3)cc(-n3cc(NC(=O)Nc4ccccc4Cl)cn3)c2)c1 [Aminopyrazole inhibitor, 4643] | > 20000 | > 20000 | 1500
COc1cc(NC(=O)c2cccc(-n3cc(NC(=O)Nc4cccc(C)c4)cn3)c2)cc(OC)c1OC [Aminopyrazole inhibitor, 3576] | > 20000 | 170 | 7
Cc1cncc(NC(=O)c2cc(N(C)C)cc(-n3cc(NC(=O)Nc4ccccc4Cl)cn3)c2)c1 [Aminopyrazole inhibitor, 4642] | > 20000 | > 20000 | 2200
COc1cc(NC(=O)c2cccc(-n3cc(NC(=O)Nc4ccccc4Cl)cn3)c2)cc(OC)c1OC [Aminopyrazole inhibitor, 3528] | > 20000 | 560 | 23
